Laboratory results: patent publication US20220378923A1, “BET DEGRADER” (KYOWA KIRIN CO., LTD., priority 2019, published 2022)

Test system: SU-DHL-4 cells
Assay: Inhibitory effect on cell viability in SU-DHL-4 cell line (Test Example 1)
Type: cell-based, human
Conditions: SU-DHL-4 cells, 72 hours, Cell Counting Kit-8; concentration showing 90% inhibition of cell viability; read-out: SU-DHL-4 Cell Viability Inhibition Rate IC90
Procedure: SU-DHL-4 cells (Code No. ACC 495, Deutsche Sammlung von Mikroorganismen and Zellkulturen GmbH; DSMZ) were cultured at 37° C. using a carbon dioxide incubator (95% air, 5% CO2) in RPMI1640 medium (Code No. 11875-093, Thermo Fisher Scientific) in which inactivated fetal bovine serum (FBS: Code No. 10099-148, Thermo Fisher Scientific) in an amount to give a final concentration of 10 vol % and penicillin/streptomycin solution (PS: […] The cells were passaged twice a week at a volume of 20-40 mL so as to maintain a cell concentration of 1×10^6 cells/mL or less. […] After seeding, the cells were precultured at 37° C. in a carbon dioxide gas incubator for 18 to 25 hours. […] At this time, the final concentration of DMSO was adjusted to be 0.1 vol %. After adding the test compound, the cells were cultured at 37° C. in a carbon dioxide gas incubator for 72 hours. Next, 0.020 mL of Cell Counting Kit-8 (Code No. CK04, DOJINDO) solution diluted 2-fold or 4-fold with phosphate buffered saline (PBS) was added to each well. Color reaction was carried out in a carbon dioxide gas incubator at 37° C. for 2 to 3 hours, and the absorbance at a wavelength of 450 nm was measured using SpectraMax 340PC (Molecular Devices). […] Absorbance of a well containing test compound • B: Absorbance of a well without addition of cells • C: Absorbance of a well without addition of test compound

| SMILES | IC90 |
| --- | --- |
| CCC(=O)N1c2ccccc2[C@H](Nc2ccc(NC(=O)CNC(=O)O[C@H]3CC[C@H](N[C@@H]4C[C@H](C)N(C(=O)CC)c5ccccc54)CC3)cc2)C[C@@H]1C (relative stereo) [Compound 7e, (1R,4R)-4-(((2S*,4R*)-2-Methyl-1-propionyl-1,2,3,4-tetrahydroquinolin-4-yl)amino)cyclohexyl (2-((4-(((2S,4R)-2-methyl-1-propionyl-1,2,3,4-tetrahydroquinolin-4-yl)amino)phenyl)amino)-2-oxoethyl)carbamate] | 20400 pM |
| CCC(=O)N1c2ccccc2[C@H](Nc2ccc(C(=O)c3cnc4n3CCN(C(=O)C3CCC(N[C@@H]5C[C@H](C)N(C(=O)CC)c6ccccc65)CC3)C4)cc2)C[C@@H]1C (relative stereo) [Compound 7i, 1-((2S*,4R*)-2-Methyl-4-(((1r,4R)-4-(3-(4-(((2S,4R)-2-methyl-1-propionyl-1,2,3,4-tetrahydroquinolin-4-yl)amino)benzoyl)-5,6,7,8-tetrahydroimidazo[1,2-a]pyrazine-7-carbonyl)cyclohexyl)amino)-3,4-dihydroquinolin-1(2H)-yl)propan-1-one] | 330 pM |
| CCC(=O)N1c2ccccc2[C@H](Nc2ccc(NC(=O)CNC(=O)C3CCC(N[C@@H]4C[C@H](C)N(C(=O)CC)c5ccccc54)CC3)cc2)C[C@@H]1C (relative stereo) [Compound 7k, (1R,4R)-4-(((2S*,4R*)-2-Methyl-1-propionyl-1,2,3,4-tetrahydroquinolin-4-yl)amino)-N-(2-((4-(((2S,4R)-2-methyl-1-propionyl-1,2,3,4-tetrahydroquinolin-4-yl)amino)phenyl)amino)-2-oxoethyl)cyclohexane-1-carboxamide] | 620 pM |
| CCC(=O)N1c2ccccc2[C@H](Nc2ccc(Cc3cnc4n3CCN(C(=O)C3CCC(N[C@@H]5C[C@H](C)N(C(=O)CC)c6ccccc65)CC3)C4)cc2)C[C@@H]1C (relative stereo) [Compound 7l, 1-((2S*,4R*)-2-Methyl-4-(((1r,4R)-4-(3-(4-(((2S,4R)-2-methyl-1-propionyl-1,2,3,4-tetrahydroquinolin-4-yl)amino)benzyl)-5,6,7,8-tetrahydroimidazo[1,2-a]pyrazine-7-carbonyl)cyclohexyl)amino)-3,4-dihydroquinolin-1(2H)-yl)propan-1-one] | 280 pM |
| CCC(=O)N1c2ccccc2[C@H](Nc2ccc(C(=O)NCCCNC(=O)C3CCC(N[C@@H]4C[C@H](C)N(C(=O)CC)c5ccccc54)CC3)cc2)C[C@@H]1C (relative stereo) [Compound 7m, 4-(((2S,4R)-2-Methyl-1-propionyl-1,2,3,4-tetrahydroquinolin-4-yl)amino)-N-(3-((1R,4r)-4-(((2S*,4R*)-2-methyl-1-propionyl-1,2,3,4-tetrahydroquinolin-4-yl)amino)cyclohexane-1-carboxamide)propyl)benzamide] | 20300 pM |
| CCC(=O)N1c2ccccc2[C@H](Nc2ccc(C(=O)NC3CN(C(=O)C4CCC(N[C@@H]5C[C@H](C)N(C(=O)CC)c6ccccc65)CC4)C3)cc2)C[C@@H]1C (relative stereo) [Compound 7n, 4-(((2S,4R)-2-Methyl-1-propionyl-1,2,3,4-tetrahydroquinolin-4-yl)amino)-N-(1-((1R,4R)-4-(((2S*,4R*)-2-methyl-1-propionyl-1,2,3,4-tetrahydroquinolin-4-yl)amino)cyclohexane-1-carbonyl)azetidin-3-yl)benzamide] | 13900 pM |
| CCC(=O)N1c2ccccc2[C@H](Nc2ccc(-c3cnn(C4CCN(C(=O)C5CCC(N[C@@H]6C[C@H](C)N(C(=O)CC)c7ccccc76)CC5)CC4)c3)cc2)C[C@@H]1C (relative stereo) [Compound 8d, 1-((2S*,4R*)-2-Methyl-4-(((1r,4R)-4-(4-(4-(4-(((2S,4R)-2-methyl-1-propionyl-1,2,3,4-tetrahydroquinolin-4-yl)amino)phenyl)-1H-pyrazol-1-yl)piperidine-1-carbonyl)cyclohexyl)amino)-3,4-dihydroquinolin-1(2H)-yl)propan-1-one] | 140 pM |
| CCC(=O)N1c2ccccc2[C@H](Nc2ccc(NC(=O)C3CCN(C(=O)C4CCC(N[C@@H]5C[C@H](C)N(C(=O)CC)c6ccccc65)CC4)CC3)cc2)C[C@@H]1C (relative stereo) [Compound 8q, 1-((1R,4r)-4-(((2S*,4R*)-2-Methyl-1-propionyl-1,2,3,4-tetrahydroquinolin-4-yl)amino)cyclohexane-1-carbonyl)-N-(4-(((2S,4R)-2-methyl-1-propionyl-1,2,3,4-tetrahydroquinolin-4-yl)amino)phenyl)piperidine-4-carboxamide] | 19000 pM |

Other lines, results leading:

| IC90 | SMILES |
| --- | --- |
| 380 pM | CCC(=O)N1c2ccccc2[C@H](Nc2ccc(C(=O)NCC(=O)CNC(=O)C3CCC(N[C@@H]4C[C@H](C)N(C(=O)CC)c5ccccc54)CC3)cc2)C[C@@H]1C (relative stereo) [Compound 7r, 4-(((2S,4R)-2-Methyl-1-propionyl-1,2,3,4-tetrahydroquinolin-4-yl)amino)-N-(3-((1R,4r)-4-(((2S*,4R*)-2-methyl-1-propionyl-1,2,3,4-tetrahydroquinolin-4-yl)amino)cyclohexane-1-carboxamide)-2-oxopropyl)benzamide] |
| 200 pM | CCC(=O)N1c2ccccc2[C@H](Nc2ccc(-c3ccc(CNC(=O)C4CCC(N[C@@H]5C[C@H](C)N(C(=O)CC)c6ccccc65)CC4)s3)cc2)C[C@@H]1C (relative stereo) [Compound 8e, (1R,4R)-4-(((2S*,4R*)-2-Methyl-1-propionyl-1,2,3,4-tetrahydroquinolin-4-yl)amino)-N-((5-(4-(((2S,4R)-2-methyl-1-propionyl-1,2,3,4-tetrahydroquinolin-4-yl)amino)phenyl)thiophen-2-yl)methyl)cyclohexane-1-carboxamide] |
| 1140 pM | CCC(=O)N1c2ccccc2[C@H](Nc2ccc(-c3cnc4n3CCN(C(=O)C3CCC(N[C@@H]5C[C@H](C)N(C(=O)CC)c6ccccc65)CC3)C4)cc2)C[C@@H]1C (relative stereo) [Compound 8h, 1-((2S*,4R*)-2-methyl-4-(((1R,4R)-4-(3-(4-(((2S,4R)-2-methyl-1-propionyl-1,2,3,4-tetrahydroquinolin-4-yl)amino)phenyl)-5,6,7,8-tetrahydroimidazo[1,2-a]pyrazine-7-carbonyl)cyclohexyl)amino)-3,4-dihydroquinolin-1(2H)-yl)propan-1-one] |
| 2690 pM | CCC(=O)N1c2ccccc2[C@H](Nc2ccc(SCCNC(=O)C3CCC(N[C@@H]4C[C@H](C)N(C(=O)CC)c5ccccc54)CC3)cc2)C[C@@H]1C (relative stereo) [Compound 8i, (1R,4R)-4-(((2S*,4R*)-2-Methyl-1-propionyl-1,2,3,4-tetrahydroquinolin-4-yl)amino)-N-(2-((4-(((2S,4R)-2-methyl-1-propionyl-1,2,3,4-tetrahydroquinolin-4-yl)amino)phenyl)thio)ethyl)cyclohexane-1-carboxamide] |
| 260 pM | CCC(=O)N1c2ccccc2[C@H](Nc2ccc(-c3nc(CNC(=O)C4CCC(N[C@@H]5C[C@H](C)N(C(=O)CC)c6ccccc65)CC4)no3)cc2)C[C@@H]1C (relative stereo) [Compound 8k, (1R,4R)-4-(((2S*,4R*)-2-Methyl-1-propionyl-1,2,3,4-tetrahydroquinolin-4-yl)amino)-N-((5-(4-(((2S,4R)-2-methyl-1-propionyl-1,2,3,4-tetrahydroquinolin-4-yl)amino)phenyl)-1,2,4-oxadiazol-3-yl)methyl)cyclohexane-1-carboxamide] |
| 40 pM | CCC(=O)N1c2ccccc2[C@H](Nc2ccc(-n3cc(CNC(=O)C4CCC(N[C@@H]5C[C@H](C)N(C(=O)CC)c6ccccc65)CC4)nn3)cc2)C[C@@H]1C (relative stereo) [Compound 8l, (1R,4R)-4-(((2S*,4R*)-2-Methyl-1-propionyl-1,2,3,4-tetrahydroquinolin-4-yl)amino)-N-((1-(4-(((2S,4R)-2-methyl-1-propionyl-1,2,3,4-tetrahydroquinolin-4-yl)amino)phenyl)-1H-1,2,3-triazol-4-yl)methyl)cyclohexane-1-carboxamide] |
| 1170 pM | CCC(=O)N1c2ccccc2[C@H](Nc2ccc(NC(=O)NCCNC(=O)C3CCC(N[C@@H]4C[C@H](C)N(C(=O)CC)c5ccccc54)CC3)cc2)C[C@@H]1C (relative stereo) [Compound 8n, (1R,4r)-4-(((2S*,4R*)-2-Methyl-1-propionyl-1,2,3,4-tetrahydroquinolin-4-yl)amino)-N-(2-(3-(4-(((2S,4R)-2-methyl-1-propionyl-1,2,3,4-tetrahydroquinolin-4-yl)amino)phenyl)ureido)ethyl)cyclohexane-1-carboxamide] |
| 490 pM | CCC(=O)N1c2ccccc2[C@H](Nc2ccc(-c3cnn(CCNC(=O)C4CCC(N[C@@H]5C[C@H](C)N(C(=O)CC)c6ccccc65)CC4)c3)cc2)C[C@@H]1C (relative stereo) [Compound 8o, (1R,4r)-4-(((2S*,4R*)-2-Methyl-1-propionyl-1,2,3,4-tetrahydroquinolin-4-yl)amino)-N-(2-(4-(4-(((2S,4R)-2-methyl-1-propionyl-1,2,3,4-tetrahydroquinolin-4-yl)amino)phenyl)-1H-pyrazol-1-yl)ethyl)cyclohexane-1-carboxamide] |
